Common to all, as to assay type: cell-based, mouse
For experiment [1], the system named is 3T3-L1 adipocytes. Nature of the experiment: Adipogenesis assay with inhibitors of intracellular signaling pathways (AdipoRed Assay Reagent). The protocol:
In yet another experiment, to search for the involvement of intracellular signaling factors, the culture fluid was substituted with a culture fluid containing DMEM, which contained 10% FBS and insulin (10 µg/ml), and a vehicle (1% ethanol) or DHMBA (1 or 10 µM) two days after the differentiation culture. The cells were cultured for another two days in a culture fluid containing signaling inhibitory factors, such as genistein (1 or 10 µM), Wortmannin (10 or 100 nM), PD98059 (1 or 10 µM), or Bay 11-7082 (1 or 10 nM). After the cell culture, the amount of intracellular lipid (triglyceride) formation was quantified using AdipoRed Assay Reagent (Lonza, Walkersville, MD, USA) [19 to 21]. Fluorescence was measured at an excitation of 485 nm and an emission of 570 nm using a 96-well plate reader (µQuant, Bio-Tek Instruments).

Experiment [2] concerns 3T3-L1 preadipocytes. Kind of experiment: Cell proliferation assay (count of living cells, trypan blue). The protocol: […] Furthermore, in an experiment to measure cell proliferation, 3T3-L1 preadipocytes (1 × 10^5/ml per well of a 24-well plate) were cultured for three days in a culture fluid containing a vehicle (1% ethanol as the final concentration) or DHMBA (0.1, 1, 10, 100, or 1000 µM).
(§1) After the culture, adhering cells were separated from each well by adding an aseptic solution containing 0.05% trypsin and EDTA (0.1 ml per well) in PBS (Thermo Fisher Scientific, Waltham, MA, USA) not containing Ca^2+/Mg^2+ and incubating the cells for two minutes. Afterward, 0.9 ml of DMEM containing 10% FBS was added to each well to prepare cell suspensions. In order to measure the number of living cells, a medium (0.1 ml) containing suspension cells was mixed with 0.1 ml of 0.5% trypan blue staining solution. The living cells were counted under a microscope (Olympus MTV-3) using a cell counter (Line Seiki H-102P, Tokyo, Japan) and a hemocytometer (Sigma-Aldrich, St. Louis, Missouri). Two counts were averaged in each measurement. The number of cells was shown as the number per well of a culture plate.

Experiment [3] concerns 3T3-L1 preadipocytes. Nature of the experiment: Cell death assay (number of cells after sub-confluence). Particulars: 1000 µM, another two days after sub-confluence (Fig. 2C). The procedure: In an experiment to measure cell death, 3T3-L1 preadipocytes (1×10^5/ml per well of a 24-well plate) were cultured for three days in a DMEM culture fluid containing 10% BCS and 1% P/S. The cells that reached sub-confluence were cultured for another 48 hours in the presence of a vehicle (1% ethanol as the final concentration) or DHMBA (0.1, 1, 10, 100, or 1000 µM) to examine the variation in the number of cells.
as §1

For experiment [4], the system named is 3T3-L1 preadipocytes. Kind of experiment: Number of cells in the differentiation process. Particulars: 1 or 10 µM. The procedure: In order to understand the influence of DHMBA on the differentiation of 3T3-L1 preadipocytes, 3T3-L1 preadipocytes (5×10^4 cells/ml per well of a 24-well plate) were cultured for three days, at which point they reached sub-confluence, in 10% bovine calf serum (BCS). After the cells reached sub-confluence (on day 0), the culture fluid was changed to a DMEM differentiation-inducing culture fluid containing 10% FBS, 1% P/S, 0.5 mM IBMX, 1 µM dexamethasone, and insulin (10 µg/ml), and the cells were cultured for another two days. Two days later, to promote adipogenesis, the culture fluid was replaced with a fresh differentiation culture fluid of DMEM containing 10% FBS and insulin (10 µg/ml), and the cells were cultured for another two days.
First, to quantify the effect of DHMBA on the number of cells, a vehicle (1% ethanol as the final concentration) or DHMBA (1 or 10 µM) was added to the differentiation-inducing culture fluid on day 0 of differentiation starting culture or after two days. After zero to two days of the differentiation culture or after two to four days of the culture, the number of cells adhered to a culture dish was measured as described in the previous section.

The test system of experiment [5] is 3T3-L1 adipocytes. Kind of experiment: Fat accumulation assay (Oil Red O staining). The following applies: 0.1, 1, 10, or 100 µM. The protocol:
In order to understand the influence of DHMBA on the differentiation of 3T3-L1 preadipocytes, 3T3-L1 preadipocytes (5×10^4 cells/ml per well of a 24-well plate) were cultured for three days, at which point they reached sub-confluence, in 10% bovine calf serum (BCS). After the cells reached sub-confluence (on day 0), the culture fluid was changed to a DMEM differentiation-inducing culture fluid containing 10% FBS, 1% P/S, 0.5 mM IBMX, 1 µM dexamethasone, and insulin (10 µg/ml), and the cells were cultured for another two days. […]
In an additional experiment to understand the effect of DHMBA on the content of lipids in 3T3-L1 adipocytes, a vehicle (1% ethanol as the final concentration) or DHMBA (0.1, 1, 10, or 100 µM) was included in the differentiation-inducing culture fluid to culture the cells from day 0 of the differentiation-inducing culture to four days later. In order to quantify the lipid content (triglycerides) after the cell culture, the cells in the 24-well plate were gently washed twice with PBS and fixed with 4% formaldehyde dissolved in PBS for 30 minutes. […] Furthermore, in order to quantify the lipid content, the Oil Red stain was extracted with isopropanol. […] The eluate was used to measure the absorbance at 510 nm with a spectrophotometer (µQuant, Bio-Tek Instruments).

In experiment [6] the test system is 3T3-L1 adipocytes. Nature of the experiment: Adipogenesis assay (AdipoRed Assay Reagent). The following applies: 1, 10, or 100 µM. The protocol:
3T3-L1 preadipocytes (10^4 cells/0.2 ml per well of a 96-well plate) were cultured for three days, at which point they reached sub-confluence, in DMEM containing 10% BCS and 1% P/S. After the sub-confluence (on day 0), the cells were cultured in a differentiation-inducing culture fluid containing 10% FBS, 1% P/S, 0.5 mM IBMX, and 1 µM dexamethasone with the inclusion of a vehicle (1% ethanol as the final concentration) or DHMBA (0.1, 1, 10, or 100 µM). Two days later, the culture fluid was replaced with a DMEM culture fluid containing insulin (10 µg/ml) without containing 10% FBS or DHMBA, and then, the cells were cultured for another two days.
In another experiment, the cells were cultured in a differentiation culture fluid not containing DHMBA on day 0 of differentiation-inducing culture. Two days later, the culture fluid was replaced with a DMEM culture fluid containing 10% FBS and insulin (10 µg/ml) that contained any of a vehicle (1% ethanol as the final concentration) and DHMBA (0.1, 1, 10, or 100 µM), and then, the cells were cultured for another two days.

Experiment [7] has as its system Akt. Nature of the experiment: Western blotting of protein level in adipocytes. The following applies: DHMBA 10 µM, day 2 to 4 of differentiation (Fig. 7). The procedure:
(§2) 3T3-L1 preadipocytes (1×10^6 cells/100 mm dish used, in 10 ml of culture fluid) were cultured for three days, at which point they reached sub-confluence, in DMEM containing 10% BCS and 1% P/S. Then, the cells were cultured for two days in a DMEM differentiation culture fluid containing 10% FBS, 1% P/S, 0.5 mM IBMX, and 1 µM dexamethasone. […] After the culture, the culture dish was washed three times with cold PBS (10 ml) to eliminate floating cells and dead cells, and adhering cells were scraped using a cell lysis solution containing protease and protein phosphatase inhibitors (Roche Diagnostics, Indianapolis, IN, USA). Next, the cell lysates were centrifuged for 10 minutes at 17,000 × g at 4°C. The concentration of proteins in the supernatant was quantified using Bio-Rad Protein Assay Dye (Bio-Rad Laboratories, Inc., Hercules, CA, USA) with bovine serum albumin as a standard. The extracted protein samples were stored at -80°C until they were used.
(§3) As indicated in the previous invention, a sample of 40 micrograms of supernatant proteins per lane was separated by SDS polyacrylamide gel electrophoresis (SDS-PAGE, 12%) and transferred to a PVDF membrane. Specific antibodies for target proteins, such as PPARγ (C26H12) (catalog No. 2435, rabbit antibody), C/EBPα (catalog No. 2295, rabbit), phosphoinositide 3-kinase p110α (PI3K; catalog No. 4255), Akt (catalog No. 9272, rabbit antibody), mitogen-activated protein kinase (MAPK; catalog No. 4695, rabbit antibody), phosphorylated MAPK (catalog No. […]) 4370, rabbit antibody), mechanistic target of rapamycin (mTOR, catalog No. 4517, mouse antibody), NF-κB p65 (catalog No. 3034, rabbit antibody), and β-actin (catalog No. 3700, rabbit antibody), were obtained from Cell Signaling Technology (Danvers, MA, USA). The PVDF membrane was incubated overnight at 4°C using the above protein antibodies for immunoblotting.
(§4) After the incubation, the PVDF membrane was incubated at room temperature for 60 minutes in a horseradish peroxidase-conjugated secondary antibody (Santa Cruz Biotechnology, Inc., mouse sc-2005 or rabbit sc-2305; 1:1,000 dilution). Protein bands transferred to the PVDF membrane were detected on an X-ray film using a chemiluminescent substrate (catalog No. 34577, Thermo Scientific, Rockford, IL, USA). Four independent experiments were conducted for data, their films were scanned with an Epson Perfection 1660 photo scanner, and the bands were quantified using ImageJ2 software (National Institutes of Health, Bethesda, MD, USA).
(In general: In western blotting, separated proteins are transferred to a membrane and probed.)

Experiment [8] deals with C/EBPα. Kind of experiment: Western blotting of protein level in adipocytes. Particulars: DHMBA 10 µM, day 2 to 4 of differentiation (Fig. 7). The procedure:
as §2, §3, §4

Experiment [9] relates to MAPK. Kind of experiment: Western blotting of protein level in adipocytes. Particulars: DHMBA 10 µM, day 2 to 4 of differentiation (Fig. 7). The procedure: as §2, §3, §4
The subject of experiment [10] is NF-κB p65. Kind of experiment: Western blotting of protein level in adipocytes. The following applies: DHMBA 10 µM, day 2 to 4 of differentiation (Fig. 7). The protocol: as §2, §3, §4
Experiment [11] deals with PI3 kinase 100α. Kind of experiment: Western blotting of protein level in adipocytes. Particulars: DHMBA 10 µM, day 2 to 4 of differentiation (Fig. 7). The protocol:
as §2, §3, §4

In experiment [12] the test system is PPARγ. Kind of experiment: Western blotting of protein level in adipocytes. Particulars: DHMBA 10 µM, day 2 to 4 of differentiation (Fig. 7). The protocol:
as §2, §3, §4

In experiment [13] the test system is mTOR. Nature of the experiment: Western blotting of protein level in adipocytes. Particulars: DHMBA 10 µM, day 2 to 4 of differentiation (Fig. 7). The procedure: as §2, §3, §4
Experiment [14] concerns phosphorylated MAPK. Nature of the experiment: Western blotting of protein level in adipocytes. Particulars: DHMBA 10 µM, day 2 to 4 of differentiation (Fig. 7). The protocol: as §2, §3, §4

In the case of `Cc1ccc(S(=O)(=O)C=CC#N)cc1` [Bay 11-7082, reference compound], the adipogenesis entry in [1] (Bay 11-7082 1 or 10 nM (Fig. 6D)) is “inhibited”.
In the case of `COc1c(O)cc(CO)cc1O` [DHMBA, 3,5-dihydroxy-4-methoxybenzyl alcohol], the Cell proliferation entry in experiment [2] (DHMBA 10 µM, culture for three to five days (Fig. 2A)) is “suppressed”; in experiment [2] (cultured for three days, concentrations ranging from 1 µM to 1000 µM (Fig. 2B)), “suppressed”. The “number of cells (cell death)” value in [3] is “reduced”. Moreover, the number of cells entry in experiment [4] (day 0 to 2 in culture fluid with differentiation-inducing factors (Fig. 3B)) and in experiment [4] (day 2 to 4 in culture fluid containing insulin (Fig. 3C)) was “not varied” in each case. The “lipid accumulation (Oil Red O stained images)” value in experiment [5] (on day 0 and after two days of differentiation culture (Fig. 4A)) is “reduced”. Also, in [5] (on day 0 and after two days of differentiation culture (Fig. 4B)), the “lipid content in the cells (absorbance at 510 nm)” value was “decrease”. The adipogenesis entry is given as “suppression” in experiment [6] (two to four days after the differentiation, late stage (Fig. 5C)); “suppressed” in experiment [6] (zero to four days after the differentiation (Fig. 5A)); “suppression” in [6] (zero to two days after the differentiation (Fig. 5B)); “inhibited” in [1] (DHMBA 1 or 10 µM in the presence of genistein (Fig. 6A)). The inhibition of adipogenesis entry in [1] (DHMBA 1 or 10 µM in the presence of Bay 11-7082 1 or 10 nM (Fig. 6D)), in experiment [1] (DHMBA 1 or 10 µM in the presence of PD98059 1 or 10 µM (Fig. 6C)) and in experiment [1] (DHMBA 1 or 10 µM in the presence of Wortmannin 10 or 100 nM (Fig. 6B)) was “further enhanced” throughout. Besides, the “level of Akt” value in experiment [7] is recorded as “reduction”. Also, the “level of C/EBPα” value in experiment [8] is recorded as “reduced”. Moreover, the “level of MAPK” value in experiment [9] is “reduction”. The “level of NF-κB p65” value in experiment [10] is “reduced”. In addition, the “level of PI3 kinase 100α” value in experiment [11] was “reduction”. For the same molecule, the “level of PPARγ” value in experiment [12] is on record as “reduced”. In addition, the “level of mTOR” value in experiment [13] is on record as “reduction”. Further, the “level of phosphorylated MAPK” value in experiment [14] is reported as “reduction”.
As to `COc1cccc(-c2cc(=O)c3ccccc3o2)c1N` [PD98059, reference compound], the adipogenesis result in experiment [1] (PD98059 1 or 10 µM (Fig. 6C)) was “inhibited”.
Take `COC[C@H]1OC(=O)c2coc3c2[C@@]1(C)C1=C(C3=O)[C@@H]2CCC(=O)[C@@]2(C)C[C@H]1OC(C)=O` [Wortmannin, reference compound]: the adipogenesis result in [1] was “inhibited”.
Take `O=c1c(-c2ccc(O)cc2)coc2cc(O)cc(O)c12` [genistein, reference compound]: the lipogenesis result in experiment [1] (genistein 1 or 10 µM alone, two days from day 2 of differentiation (Fig. 6A)) is recorded as “not altered”.

These data come from patent EP4726029A1, “ADIPOCYTE GROWTH INHIBITOR” (Watanabe Oyster Laboratory Co., Ltd., priority 2023, dated 2024).
